Reference: patent US10246456B2, “IRAK4 inhibiting agents” (BIOGEN MA INC., priority 2014, dated 2019)
Values joined by “and” are separate entries in the source; they are usually repeats but may differ in a detail not shown here. Identical values can stand only once.

Target: IRAK4 (Homo sapiens (Human), UniProt Q9NWZ3)
Assay: IRAK-4 AlphaScreen biochemical kinase assay
Conditions: 1 nM IRAK4, 1 mM ATP, 3.5 h at RT
Method: The biochemical assay is in a AlphaScreen format. The kinase reaction is based on the IRAK-4 phosphorylation of a biotin labeled peptide. The phosphopeptide is incubated with anti-phosphothreonine antibody as well as streptavidin- and protein A-coated beads. Binding of the protein-A coated beads to the antibody and the streptavidin beads to the peptide, leads to an energy transfer from one bead to the other, ultimately producing a luminescent/fluorescent signal.

IRAK4, sequence (Q9NWZ3 whole entry, species assumed): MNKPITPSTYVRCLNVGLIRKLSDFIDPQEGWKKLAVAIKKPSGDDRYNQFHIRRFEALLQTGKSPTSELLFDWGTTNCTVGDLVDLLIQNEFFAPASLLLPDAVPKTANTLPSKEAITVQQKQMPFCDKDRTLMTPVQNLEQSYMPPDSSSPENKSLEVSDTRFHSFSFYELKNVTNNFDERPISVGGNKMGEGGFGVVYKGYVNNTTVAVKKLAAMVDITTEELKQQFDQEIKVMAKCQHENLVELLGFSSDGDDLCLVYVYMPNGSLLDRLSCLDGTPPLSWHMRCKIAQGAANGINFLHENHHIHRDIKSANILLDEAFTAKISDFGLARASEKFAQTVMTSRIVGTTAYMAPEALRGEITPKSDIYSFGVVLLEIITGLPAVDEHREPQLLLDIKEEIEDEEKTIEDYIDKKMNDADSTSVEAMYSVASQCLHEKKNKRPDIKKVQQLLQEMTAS

Row | SMILES | IC50
1 | CCC[C@H](N)c1cccc(-c2cc(OCCOC)c3cnn(-c4cncc(CO)n4)c3c2)n1 [Example 480, (S)-(6-(6-(6-(1-aminobutyl)pyridin-2-yl)-4-(2-methoxyethoxy)-1H-indazol-1-yl)pyrazin-2-yl)methanol] | < 100 nM
2 | CC(N)c1cccc(-c2cc(F)c3cnn(-c4cccc(CO)n4)c3c2)n1 (stereo not drawn) [Example 321, (6-(6-(6-(1-aminoethyl)pyridin-2-yl)-4-fluoro-1H-indazol-1-yl)pyridin-2-yl)methanol] | < 100 nM
3 | CCC[C@H](N)c1cccc(-c2cc(OCCCO)c3cnn(-c4cccc(CO)n4)c3c2)n1 [Example 460, (S)-3-((6-(6-(1-aminobutyl)pyridin-2-yl)-1-(6-(hydroxymethyl)pyridin-2-yl)-1H-indazol-4-yl)oxy)propan-1-ol] | < 100 nM
4 | CC(N)c1cccc(-c2ccc3cnn(-c4cn(C)cn4)c3c2)n1 (stereo not drawn) [Example 138, 1-(6-(1-(1-methyl-1H-imidazol-4-yl)-1H-indazol-6-yl)pyridin-2-yl)ethanamine] | 100 to 1000 nM and 1000 to 10000 nM
5 | Cc1cccc(-n2ncc3ccc(-c4nccc(CN)n4)cc32)n1 [Example 9, (2-(1-(6-methylpyridin-2-yl)-1H-indazol-6-yl)pyrimidin-4-yl)methanamine] | 100 to 1000 nM
6 | C[C@H](N)c1cccc(-c2cc(-c3ccn(C(F)F)n3)c3cnn(-c4cccc(CO)n4)c3c2)n1 [Example 386, (S)-(6-(6-(6-(1-aminoethyl)pyridin-2-yl)-4-(1-(difluoromethyl)-1H-pyrazol-3-yl)-1H-indazol-1-yl)pyridin-2-yl)methanol] | < 100 nM
7 | Cc1csc(-n2ncc3ccc(-c4cccc(C(C)N)n4)cc32)n1 (stereo not drawn) [Example 134, 1-(6-(1-(4-methylthiazol-2-yl)-1H-indazol-6-yl)pyridin-2-yl)ethanamine] | 100 to 1000 nM
8 | CCC[C@H](N)c1cccc(-c2cc([C@H]3CC[C@@H](C)O3)c3cnn(-c4cccc(CO)n4)c3c2)n1 [Example 478, (6-(6-(6-((S)-1-aminobutyl)pyridin-2-yl)-4-((2R,5R)-5-methyltetrahydrofuran-2-yl)-1H-indazol-1-yl)pyridin-2-yl)methanol] | < 100 nM
9 | Cc1cccc(-n2ncc3c(CN)cc(-c4cccc(C(C)N)n4)cc32)n1 (stereo not drawn) [Example 104, 1-(6-(4-(aminomethyl)-1-(6-methylpyridin-2-yl)-1H-indazol-6-yl)pyridin-2-yl)ethanamine] | 1000 to 10000 nM
10 | COCCOc1cc(-c2cccc([C@@H](N)CC(C)(F)F)n2)cc2c1cnn2-c1cccc(CO)n1 [Example 455, (S)-(6-(6-(6-(1-amino-3,3-difluorobutyl)pyridin-2-yl)-4-(2-methoxyethoxy)-1H-indazol-1-yl)pyridin-2-yl)methanol] | < 100 nM
11 | CCC[C@H](N)c1cccc(-c2ccc3cnn(-c4cccc(C(C)O)n4)c3c2)n1 (single isomer, unassigned) [Example 417] | < 100 nM
12 | CN(C)CCNC(=O)c1cccc(-n2ncc3ccc(-c4cncc(N)c4)cc32)n1 [Example 69, 6-(6-(5-aminopyridin-3-yl)-1H-indazol-1-yl)-N-(2-(dimethylamino)ethyl)picolinamide] | 1000 to 10000 nM
13 | Cc1cccc(-n2ncc3ccc(-c4cncc(N)c4C)cc32)n1 [Example 10, 4-methyl-5-(1-(6-methylpyridin-2-yl)-1H-indazol-6-yl)pyridin-3-amine] | 1000 to 10000 nM
14 | CC(N)c1cccc(-c2ccc3cnn(-c4cccc(CO)n4)c3c2)c1 (stereo not drawn) [Example 563, (6-(6-(3-(1-aminoethyl)phenyl)-1H-indazol-1-yl)pyridin-2-yl)methanol] | 100 to 1000 nM
15 | Cc1cccc(-n2ncc3ccc(-c4cc(C(N)=O)ccn4)cc32)n1 [Example 201, 2-(1-(6-methylpyridin-2-yl)-1H-indazol-6-yl)isonicotinamide] | > 10000 nM
16 | CC(N)c1cccc(-c2cc(CO)c3cnn(-c4cccc(CO)n4)c3c2)n1 (stereo not drawn) [Example 309, (6-(6-(1-aminoethyl)pyridin-2-yl)-1-(6-(hydroxymethyl)pyridin-2-yl)-1H-indazol-4-yl)methanol] | < 100 nM
17 | CCCC(N)c1cccc(-c2ccc3cnn(-c4cccc(CO)n4)c3c2)n1 (stereo not drawn) [Example 280, (6-(6-(6-(1-aminobutyl)pyridin-2-yl)-1H-indazol-1-yl)pyridin-2-yl)methanol] | < 100 nM
18 | Nc1cncc(-c2ccc3cnn(-c4cccc(C(=O)NCCO)n4)c3c2)c1 [Example 65, 6-(6-(5-aminopyridin-3-yl)-1H-indazol-1-yl)-N-(2-hydroxyethyl)picolinamide] | 100 to 1000 nM

Other lines, results leading:

Row | IC50 | SMILES
19 | < 100 nM | COCCOc1cc(-c2cccc([C@H](C)N)n2)cc2c1cnn2-c1cccc(CO)n1 [Example 586, (S)-(6-(6-(6-(1-aminoethyl)pyridin-2-yl)-4-(2-methoxyethoxy)-1H-indazol-1-yl)pyridin-2-yl)methanol]
20 | 100 to 1000 nM | Cc1cccc(-n2ncc3ccc(-c4cc(C(F)(F)F)cc(C(C)N)n4)cc32)n1 (stereo not drawn) [Example 125, 1-(6-(1-(6-methylpyridin-2-yl)-1H-indazol-6-yl)-4-(trifluoromethyl)pyridin-2-yl)ethanamine]
21 | 100 to 1000 nM | Cc1cc(C#N)cc(-n2ncc3ccc(-c4cncc(N)c4)cc32)n1 [Example 34, 2-(6-(5-aminopyridin-3-yl)-1H-indazol-1-yl)-6-methylisonicotinonitrile]
22 | < 100 nM | NC1CCCc2ccc(-c3ccc4cnn(-c5cccc(C(F)(F)F)n5)c4c3)nc21 (stereo not drawn) [Example 63, 2-(1-(6-(trifluoromethyl)pyridin-2-yl)-1H-indazol-6-yl)-5,6,7,8-tetrahydroquinolin-8-amine]
23 | 100 to 1000 nM | CCC[C@H](N)c1cccc(-c2cc(OCCS(C)(=O)=O)c3cnn(-c4cccc(CO)n4)c3c2)n1 [Example 470, (S)-(6-(6-(6-(1-aminobutyl)pyridin-2-yl)-4-(2-(methylsulfonyl)ethoxy)-1H-indazol-1-yl)pyridin-2-yl)methanol]
24 | 1000 to 10000 nM | Cc1cccc(-n2ncc3ccc(-c4cn(C)c(C(C)O)n4)cc32)n1 (stereo not drawn) [Example 299, 1-(1-methyl-4-(1-(6-methylpyridin-2-yl)-1H-indazol-6-yl)-1H-imidazol-2-yl)ethanol]
25 | 1000 to 10000 nM | CC(N)c1cccc(-c2ccc3cnn(-c4cccc(C(C)(C)S(C)(=O)=O)n4)c3c2)n1 (stereo not drawn) [Example 289, 1-(6-(1-(6-(2-(methylsulfonyl)propan-2-yl)pyridin-2-yl)-1H-indazol-6-yl)pyridin-2-yl)ethanamine]
26 | < 100 nM | C[C@H](N)c1cccc(-c2cc(-c3csc(C(F)(F)F)n3)c3cnn(-c4cccc(CO)n4)c3c2)n1 [Example 382, (S)-(6-(6-(6-(1-aminoethyl)pyridin-2-yl)-4-(2-(trifluoromethyl)thiazol-4-yl)-1H-indazol-1-yl)pyridin-2-yl)methanol]
27 | < 100 nM | CCCC(N)c1cccc(-c2ccc3cnn(-c4cccc(C(N)=O)n4)c3c2)n1 (stereo not drawn) [Example 274, 6-(6-(6-(1-aminobutyl)pyridin-2-yl)-1H-indazol-1-yl)picolinamide]
28 | 100 to 1000 nM | NC(=O)C(N)c1cccc(-c2ccc3cnn(-c4cccc(CO)n4)c3c2)n1 (stereo not drawn) [Example 561, 2-amino-2-(6-(1-(6-(hydroxymethyl)pyridin-2-yl)-1H-indazol-6-yl)pyridin-2-yl)acetamide]
29 | < 100 nM | C[C@H](N)c1cccc(-c2cc(-c3ccnn3C(F)F)c3cnn(-c4cccc(CO)n4)c3c2)n1 [Example 387, (S)-(6-(6-(6-(1-aminoethyl)pyridin-2-yl)-4-(1-(difluoromethyl)-1H-pyrazol-5-yl)-1H-indazol-1-yl)pyridin-2-yl)methanol]
30 | < 100 nM | CNC(=O)c1cc(-c2cccc(C(C)N)n2)cc2c1cnn2-c1cccc(CO)n1 (stereo not drawn) [Example 316, 6-(6-(1-aminoethyl)pyridin-2-yl)-1-(6-(hydroxymethyl)pyridin-2-yl)-N-methyl-1H-indazole-4-carboxamide]
31 | < 100 nM | CCC[C@H](N)c1cccc(-c2ccc3cnn(-c4ccnc(CO)n4)c3c2)n1 [Example 401, (S)-(4-(6-(6-(1-aminobutyl)pyridin-2-yl)-1H-indazol-1-yl)pyrimidin-2-yl)methanol]
32 | < 100 nM | CCC[C@H](N)c1cccc(-c2cc(C(C)OC)c3cnn(-c4cccc(CO)n4)c3c2)n1 (stereo partly drawn) [Example 569, (6-(6-(6-((S)-1-aminobutyl)pyridin-2-yl)-4-(1-methoxyethyl)-1H-indazol-1-yl)pyridin-2-yl)methanol]
33 | 1000 to 10000 nM | Cc1cccc(-n2ncc3ccc(-c4cncc(N5CCCC5)c4)cc32)n1 [Example 203, 1-(6-methylpyridin-2-yl)-6-(5-(pyrrolidin-1-yl)pyridin-3-yl)-1H-indazole]
34 | < 100 nM | CNC(=O)c1cc(-c2cccc(C(C)N)n2)cc2c1cnn2-c1cccc(C(F)(F)F)n1 (stereo not drawn) [Example 59, 6-(6-(1-aminoethyl)pyridin-2-yl)-N-methyl-1-(6-(trifluoromethyl)pyridin-2-yl)-1H-indazole-4-carboxamide]
35 | 1000 to 10000 nM | N#Cc1nccc(-c2ccc3cnn(-c4cccc(C(F)(F)F)n4)c3c2)n1 [Example 94, 4-(1-(6-(trifluoromethyl)pyridin-2-yl)-1H-indazol-6-yl)pyrimidine-2-carbonitrile]
36 | 100 to 1000 nM | Cc1cccc(-n2ncc3ccc(-c4cn(C)c(C(C)N)n4)cc32)n1 (stereo not drawn) [Example 305, 1-(1-methyl-4-(1-(6-methylpyridin-2-yl)-1H-indazol-6-yl)-1H-imidazol-2-yl)ethanamine]
37 | 100 to 1000 nM | Cc1cccc(-n2ncc3ccc(-c4cccc(C(C)N(C)C)n4)cc32)n1 (stereo not drawn) [Example 232, N,N-dimethyl-1-(6-(1-(6-methylpyridin-2-yl)-1H-indazol-6-yl)pyridin-2-yl)ethanamine]
38 | 100 to 1000 nM | Cc1cccc(-n2ncc3ccc(-c4cccc(CN)n4)cc32)n1 [Example 4, (6-(1-(6-methylpyridin-2-yl)-1H-indazol-6-yl)pyridin-2-yl)methanamine]
39 | < 100 nM | CCC[C@H](N)c1cccc(-c2cc([C@@H]3CCCN3)c3cnn(-c4cccc(CO)n4)c3c2)n1 [Example 573, (6-(6-(6-((S)-1-aminobutyl)pyridin-2-yl)-4-((S)-pyrrolidin-2-yl)-1H-indazol-1-yl)pyridin-2-yl)methanol]
